Among the data in patent publication US20160137639A1, “TRIAZOLE-ISOXAZOLE COMPOUND AND MEDICAL USE THEREOF” (JAPAN TOBACCO INC., priority 2012, published 2016) are EC50 values, retold here.

What is called EC50 is the concentration at which the effect is half-maximal.

One experiment deals with T1, human RORγ (Homo sapiens, UniProt P51449).
T1 construct: human, NM_005060.3 and from Ser253 to Lys518; expressed in transfected cells; host or cells: CHO cells (transient co-transfection with pG5-Luc reporter)
T1 sequence (P51449 253-518): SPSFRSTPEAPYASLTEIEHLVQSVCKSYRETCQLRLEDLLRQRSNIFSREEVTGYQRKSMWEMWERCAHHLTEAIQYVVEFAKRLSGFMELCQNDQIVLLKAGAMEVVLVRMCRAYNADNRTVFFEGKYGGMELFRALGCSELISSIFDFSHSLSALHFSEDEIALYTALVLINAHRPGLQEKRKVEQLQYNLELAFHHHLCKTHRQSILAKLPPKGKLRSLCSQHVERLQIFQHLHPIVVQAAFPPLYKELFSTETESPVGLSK
The experiment is described as follows: Luciferase reporter gene assay of inhibitory effect against RORγ transcriptional activity (GAL4-hRORγ plasmid in CHO cells). It is filed as cell-based. The conditions noted are these: read-out: LUC EC50 (μM) hRORg. For orientation: A reporter such as luciferase makes a cellular process visible.

In the next experiment the target is T2, mouse RORγ (Mus musculus, UniProt P51450).
T2 construct: mouse, NM_011281.2 and from Ile251 to Lys516; expressed in transfected cells; host or cells: CHO cells (transient co-transfection with pG5-Luc reporter)
T2 sequence (P51450 251-516): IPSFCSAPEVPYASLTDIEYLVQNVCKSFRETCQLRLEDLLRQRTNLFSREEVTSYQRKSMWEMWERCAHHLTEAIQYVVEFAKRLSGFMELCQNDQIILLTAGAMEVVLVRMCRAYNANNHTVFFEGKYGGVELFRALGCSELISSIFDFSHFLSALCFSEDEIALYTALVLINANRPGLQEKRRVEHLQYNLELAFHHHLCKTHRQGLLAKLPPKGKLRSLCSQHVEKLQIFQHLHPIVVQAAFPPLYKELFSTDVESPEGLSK
The experiment is described as follows: Luciferase reporter gene assay of inhibitory effect against RORγ transcriptional activity (GAL4-mRORγ plasmid in CHO cells). It is filed as cell-based. The conditions noted are these: read-out: LUC EC50 (μM) mRORg. The method, boiled down:
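Readout is intracellular luciferase after 2-day compound exposure (8 concentrations, 0.1% DMSO) in CHO cells expressing GAL4 fused to mouse RORγ LBD residues Ile251–Lys516 plus pG5-Luc reporter. EC50 fitted from %-of-control; points showing resazurin-detected cytotoxicity dropped.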

Bounds are passed on as bounds.

For `CC(=O)N1C[C@H](C(=O)Nc2cccc(C)c2C)[C@@H](c2nnc(CCCC(C)(C)C)n2C2CC2)C1` (racemic) [Example F-324], the EC50 on human RORγ and on mouse RORγ was under 3 µM in each case.
Turning to `CC(=O)N1C[C@H](C(=O)Nc2ccc(C)cc2C)[C@@H](c2nnc(CCOC(C)(C)C(F)(F)F)n2C2CC2)C1` (racemic) [Example F-325], the EC50 on human RORγ and at mouse RORγ was under 3 µM throughout.
Take `CC(=O)N1C[C@H](C(=O)Nc2ccc(C)cc2C)[C@@H](c2nnc([C@H]3C[C@H](OC(C)C)C3)n2C2CC2)C1` (racemic) [Example F-329]: the concentration for a half-maximal effect (EC50) at human RORγ and on mouse RORγ was over 3 µM in each case.
As for `CC(=O)N1C[C@H](C(=O)Nc2ccc(C)cc2C)[C@@H](c2nnc([C@H]3C[C@@H](OC(C)C)C3)n2C2CC2)C1` (racemic) [Example F-330], the EC50 on human RORγ and at mouse RORγ was over 3 µM each time.
For `CC(=O)N1C[C@H](C(=O)Nc2cc(C)ccc2C)[C@@H](c2nnc(CCCC(C)(C)C)n2C2CC2)C1` (racemic) [Example F-331], the 50% effective concentration (EC50) at human RORγ and on mouse RORγ was under 3 µM each time.
Consider `COc1cccc(NC(=O)[C@H]2CN(C(C)=O)C[C@@H]2c2nnc(CCCC(C)(C)C)n2C2CC2)c1C` (racemic) [Example F-332], for which the EC50 at human RORγ and on mouse RORγ was under 3 µM each time.
Turning to `CC(=O)N1C[C@H](C(=O)Nc2ccc(F)cc2C)[C@@H](c2nnc(CCCC(C)(C)C)n2C2CC2)C1` (racemic) [Example F-333], the EC50 on human RORγ and on mouse RORγ was under 3 µM throughout.
Consider `CC(=O)N1C[C@H](C(=O)Nc2ccc(C)cc2C)[C@@H](c2nnc(C3CC3CC(C)C)n2C2CC2)C1` (mixture of isomers) [Example F-340], for which the EC50 on human RORγ is over 3 µM; on mouse RORγ, under 3 µM.
In the same order, the values of `CC(=O)N1C[C@H](C(=O)Nc2ccc(C)cc2C)[C@@H](c2nnc(C3CC3CC(C)C)n2C2CC2)C1` (mixture of isomers) [Example F-341] are under 3 µM and under 3 µM.
Turning to `CC(=O)N1C[C@H](C(=O)Nc2ccc(C)cc2C)[C@@H](c2nnc([C@H]3C[C@H](c4ccccc4)C3)n2C2CC2)C1` (racemic) [Example F-345], the EC50 on human RORγ and at mouse RORγ was under 3 µM in each case.
With `CC(=O)N1C[C@H](C(=O)Nc2ccc(C)cc2C)[C@@H](c2nnc([C@H]3C[C@@H](c4ccccc4)C3)n2C2CC2)C1` (racemic) [Example F-346], the concentration for a half-maximal effect (EC50) at human RORγ and on mouse RORγ was under 3 µM in each case.
With `CC(=O)N1C[C@H](C(=O)Nc2ccc(C)cc2C)[C@@H](c2nnc(CC3CC(C)(C)C3)n2C2CC2)C1` (racemic) [Example F-347], the EC50 on human RORγ and on mouse RORγ was under 3 µM each time.
For `CC(=O)N1C[C@H](C(=O)Nc2ccc(C)cc2C)[C@@H](c2nnc(-c3cc(C(C)C)on3)n2C2CC2)C1` (racemic) [Example F-350], the EC50 on human RORγ and at mouse RORγ was under 3 µM in each case.
Turning to `CCn1c(CCCC(C)(C)C)nnc1[C@H]1CN(C(C)=O)C[C@@H]1C(=O)Nc1ccc(C)cc1C` (racemic) [Example F-351], the 50% effective concentration (EC50) at human RORγ and on mouse RORγ was under 3 µM in each case.
On to `CC(=O)N1C[C@H](C(=O)Nc2ccc(C)cc2C)[C@@H](c2nnc(CCCC(C)(C)C)n2CC(F)(F)F)C1` (racemic) [Example F-356], for which the EC50 at human RORγ and at mouse RORγ was under 3 µM each time.
As to `Cc1ccc(NC(=O)CC(CCO)c2nnc(C(F)(F)CCC(C)(C)C)n2C2CC2)c(C)c1` (racemic) [Example F-366], the EC50 at human RORγ and at mouse RORγ was under 3 µM throughout.
With `Cc1ccc(NC(=O)CCc2nnc(C(O)CCC(C)(C)C)n2C2CC2)c(C)c1` (racemic) [Example F-367], the concentration giving a half-maximal response (EC50) on human RORγ was over 3 µM; on mouse RORγ, under 3 µM.
Turning to `CC(=O)N1C[C@H](C(=O)Nc2ccc(C)cc2C)[C@@H](c2nnc(-c3cnn(C(C)C)c3)n2C2CC2)C1` (racemic) [Example F-368], the EC50 at human RORγ and on mouse RORγ was over 3 µM throughout.
As to `C=CCC(CC(=O)Nc1ccc(C)cc1C)c1nnc(CCCC(C)(C)C)n1CC(F)(F)F` (racemic) [Example F-373], the concentration giving a half-maximal response (EC50) at human RORγ and at mouse RORγ was under 3 µM each time.
On to `C=CCC(CC(=O)Nc1ccc(C)cc1C)c1nnc(C(F)(F)CCC(C)(C)C)n1C1CC1` (racemic) [Example F-376], for which the EC50 at human RORγ and at mouse RORγ was under 3 µM throughout.
As for `CC(=O)N1C[C@H](C(=O)Nc2ccc(C)cc2C)[C@@H](c2nnc([C@H]3C[C@@H](OC(C)(C)C)C3)n2C2CC2)C1` (racemic) [Example F-382], the EC50 on human RORγ and at mouse RORγ was under 3 µM each time.
As for `Cc1ccc(NC(=O)[C@H]2CN(C)CC[C@@H]2c2nnc(CCCC(C)(C)C)n2C2CC2)c(C)c1` (racemic) [Example F-394], the EC50 at human RORγ and on mouse RORγ was under 3 µM in each case.
Turning to `Cc1ccc(NC(=O)[C@H]2CCN(C)C[C@@H]2c2nnc(CCCC(C)(C)C)n2C2CC2)c(C)c1` (racemic) [Example F-395], the 50% effective concentration (EC50) at human RORγ and at mouse RORγ was under 3 µM each time.
In the case of `COCCC(CC(=O)Nc1ccc(C)cc1C)c1nnc(CCC2CCCCC2)n1C1CC1` (racemic) [Example F-396], the EC50 on human RORγ and on mouse RORγ was under 3 µM throughout.
For `Cc1ccc(NC(=O)[C@H]2CN(S(C)(=O)=O)C[C@@H]2c2nnc(CCCC(C)(C)C)n2C2CC2)c(C)c1` (racemic) [Example F-397], the concentration giving a half-maximal response (EC50) on human RORγ and on mouse RORγ was under 3 µM throughout.
For the compound `Cc1ccc(NC(=O)[C@H]2CN(S(=O)(=O)C(F)(F)F)C[C@@H]2c2nnc(CCCC(C)(C)C)n2C2CC2)c(C)c1` (racemic) [Example F-398], the concentration for a half-maximal effect (EC50) at human RORγ and on mouse RORγ was under 3 µM throughout.
Regarding `COC(=O)N1C[C@H](C(=O)Nc2ccc(C)cc2C)[C@@H](c2nnc(CCCC(C)(C)C)n2C2CC2)C1` (racemic) [Example F-399], the half-maximal effective concentration (EC50) on human RORγ and on mouse RORγ was under 3 µM in each case.
Turning to `CCC(=O)N1C[C@H](C(=O)Nc2ccc(C)cc2C)[C@@H](c2nnc(CCCC(C)(C)C)n2C2CC2)C1` (racemic) [Example F-400], the EC50 at human RORγ and at mouse RORγ was under 3 µM in each case.
Take `Cc1ccc(NC(=O)CC(CCCO)c2nnc(CCCC(C)(C)C)n2CC(F)(F)F)c(C)c1` (racemic) [Example F-401]: the EC50 at human RORγ and on mouse RORγ was under 3 µM each time.
As to `CC(=O)N1C[C@H](C(=O)Nc2ccc(C)cc2C)[C@@H](c2nnc(C3CN(C(=O)OC(C)(C)C)C3)n2C2CC2)C1` (racemic) [Example F-416], the EC50 on human RORγ and at mouse RORγ was over 3 µM each time.
Take `CC(=O)N1C[C@H](C(=O)Nc2ccc(C)cc2C)[C@@H](c2nnc(C3CN(C(=O)CC(C)(C)C)C3)n2C2CC2)C1` (racemic) [Example F-417]: the half-maximal effective concentration (EC50) on human RORγ and at mouse RORγ was over 3 µM in each case.
As for `CC(=O)N1C[C@H](C(=O)Nc2ccc(C)cc2C)[C@@H](c2nnc(C3CN(S(=O)(=O)C(C)C)C3)n2C2CC2)C1` (racemic) [Example F-418], the concentration giving a half-maximal response (EC50) on human RORγ and on mouse RORγ was over 3 µM each time.
Regarding `CC(=O)N1C[C@H](C(=O)Nc2ccc(C)cc2C)[C@@H](c2nnc(C3CN(C(=O)N(C)C(C)C)C3)n2C2CC2)C1` (racemic) [Example F-419], the 50% effective concentration (EC50) on human RORγ and on mouse RORγ was over 3 µM each time.
Turning to `Cc1ccc(NC(=O)[C@H]2C[C@H](O)C[C@@H]2c2nnc([C@H]3C[C@@H](CC(C)C)C3)n2C2CC2)c(C)c1` (racemic) [Example F-421], the EC50 on human RORγ and on mouse RORγ was under 3 µM throughout.
As for `Cc1ccc(NC(=O)CC(Cc2ccccn2)c2nnc([C@H]3C[C@@H](CC(C)C)C3)n2C2CC2)c(C)c1` (mixture of isomers) [Example F-422], the EC50 at human RORγ and on mouse RORγ was under 3 µM throughout.
In the case of `Cc1ccc(NC(=O)[C@H]2C[C@@H](O)C[C@@H]2c2nnc([C@H]3C[C@@H](CC(C)C)C3)n2C2CC2)c(C)c1` (racemic) [Example F-431], the concentration giving a half-maximal response (EC50) at human RORγ and at mouse RORγ was under 3 µM each time.
Take `CC(=O)N1CC[C@H](c2nnc(CCCC(C)(C)C)n2C2CC2)[C@@H](C(=O)Nc2ccc(C)cc2C)C1` (racemic) [Example F-435]: the EC50 at human RORγ and on mouse RORγ was under 3 µM in each case.
As for `Cc1ccc(NC(=O)CC(Cc2ccccc2)c2nnc(CCCC(C)(C)C)n2C2CC2)c(C)c1` (racemic) [Example F-436], the 50% effective concentration (EC50) on human RORγ and on mouse RORγ was under 3 µM each time.
On to `C#CCC(CC(=O)Nc1ccc(C)cc1C)c1nnc(CCCC(C)(C)C)n1C1CC1` (racemic) [Example F-437], for which the half-maximal effective concentration (EC50) on human RORγ and at mouse RORγ was under 3 µM throughout.
As to `Cc1ccc(NC(=O)CC(CC(C)C)c2nnc(CCCC(C)(C)C)n2C2CC2)c(C)c1` (racemic) [Example F-438], the concentration giving a half-maximal response (EC50) at human RORγ and at mouse RORγ was under 3 µM each time.
